molecular target: Transthyretin (Homo sapiens) (UniProt P02766); test: Relative binding affinity against prealbumin in competition binding assay and expressed as relative to L-T4 (100)

SMILES | Binding affinity
O=C(O)CCCCC(=O)Nc1cc(Cl)cc2c1oc1cc(Cl)c(Cl)cc12 | 0.32
O=C(O)CCCCC(=O)Nc1cc(Cl)cc2c1Oc1cc(Cl)c(Cl)cc1O2 | 15
Oc1c(I)cc(I)cc1I | 384
N[C@@H](Cc1cc(I)c(Oc2cc(I)c(O)c(I)c2)c(I)c1)C(=O)O | 100

From ChEMBL document CHEMBL1122962, “Molecular interactions of toxic chlorinated dibenzo-p-dioxins and dibenzofurans with thyroxine binding prealbumin” (J Med Chem, 1985)
